Test results published in paper PMC4363471, “Crystal Structure of Helicobacter pylori Pseudaminic Acid Biosynthesis N-Acetyltransferase PseH: Implications for Substrate Specificity and Catalysis” (PLoS ONE, 2015).

Biological target: T1, PseH (Helicobacter pylori, UniProt O25094)
T1 construct: recombinant; 21 kDa; homodimer
Experiment: X-ray crystal structure ([…] Å, co-crystallization)
Assay type: binding
Conditions: co-crystallized with 5 mM AcCoA; cofactor site between strands β4 and β5

T1 sequence (O25094 whole entry): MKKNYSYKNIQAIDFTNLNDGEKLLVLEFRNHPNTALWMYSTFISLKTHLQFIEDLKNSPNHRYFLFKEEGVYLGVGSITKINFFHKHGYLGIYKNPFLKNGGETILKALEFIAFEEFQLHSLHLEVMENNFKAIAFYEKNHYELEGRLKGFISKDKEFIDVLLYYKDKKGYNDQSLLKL

**Q.** Which “X-ray crystal structure (2.3 Å, co-crystallization)” value does the source give for `CC(=O)SCCNC(=O)CCNC(=O)[C@H](O)C(C)(C)COP(=O)(O)OP(=O)(O)OC[C@H]1O[C@@H](n2cnc3c(N)ncnc32)[C@H](O)[C@@H]1OP(=O)(O)O` [AcCoA] here?
**A.** Analysis of the difference Fourier map revealed an AcCoA binding site between the splayed strands
